Patent publication US8552013B2, “Heterocyclic compounds based on N6-substituted adenine, methods of their preparation, their use for preparation of drugs, cosmetic preparations and growth regulators, pharmaceutical preparations, cosmetic preparations and growth regulators containing these compounds” (USTAV Experimentalni Botaniky Akademie Ved Ceske Republiky, priority 2001, dated 2013)
“Also recorded” adds a separate entry of the source.

Experiments:
HOS = assay: Calcein AM cytotoxicity, HOS; type: cell-based; conditions: Homo sapiens, HOS, 72 h
[1] = system: Rosa hybrida (pot rose cultivar) explants; assay: In vitro and post vitro shoot multiplication and rooting of rose; type: in vivo
Procedure: The aim of this experiment was to test whether the new compounds are of practical use in tissue culture practice. The multiplication rate was investigated and the post vitro effects on rooting were examined. Rosa hybrida (pot rose cultivar) was cultured in 350 ml vessels with a screw on polycarbonate lid. Each culture vessel contained 100 ml autoclaved medium (120° C., 20 min). The cultures were maintained at 23±2° C. under a 16 h photoperiod at 40 μM m^−2 s^−1 PAR. The basal medium (BMR) contained Murashige and Skoog (1962) macroelements, microelements and vitamins, 95 μM NaFeEDTA, 555 μM myo-inositol, 111 mM sucrose, 1.332 mM glycine, 684 μM L-glutamine and 7 g/l agar. This medium was supplemented with 10 μM BA, mT, oMeOBAP or mMeOBAP (compound no. 14 and 15, respectively). The control medium didn't contain any cytokinin. After a culture period of 8 weeks, the number of induced shoots per explant was determined, as well as root number/explant and total root length/explant. The roots were removed and the explants (shoot clusters) were planted in unfertilised peat. After four weeks of acclimatising in a fog unit, root number and root length was determined.

[2] = system: Rosa hybrida 'Pailin' explants; assay: Early shoot senescence of tissue cultured roses; type: in vivo; conditions: 10 μM in medium
Procedure: Rosa hybrida ‘Pailin’ (a cut rose) was cultured in 350 ml vessels with a screw on polycarbonate lid. Each culture vessel contained 100 ml autoclaved medium (120° C., 20 min). The cultures were maintained at 23±2° C. under a 16 h photoperiod at 40 μM m^−2 s^−1 PAR. The basal medium (BMR) contained Murashige and Skoog (1962) macroelements, microelements and vitamins, 36.7 mg/l NaFeEDTA, 50 mg/l NaFeEDDHA, 100 mg/l […] myo-inositol, 30 g/l sucrose, 100 mg/l glycine, 50 mg/l calcium pantothenate, 100 mg/l L-glutamine and 7 g/l agar-agar. This medium was supplemented with 10 μM BA, mT and mMeOBAP. The last 2 cytokinins were filter sterilised and added after autoclaving the medium in the vessels. The control medium didn't contain any cytokinin. After a culture period of 6 weeks, scoring senescence symptoms was started.

human skin fibroblasts [3] = assay: Cell attachment of human skin fibroblasts; type: cell-based
Procedure: All experiments were performed on early and mid passage cultures (about 20 to 40% lifespan completed) of normal human adult skin fibroblast line; designated ASF-2 & Senetek cell line (about 10-90% lifespan completed); designated as SF20. In order to check the effects of test compounds on senescent cells, late passage cells with more than 95% lifespan completed were used. ASF-2 and SF20 cell lines were established from a mammary skin biopsy obtained from a young, non-smoking and healthy […] at the time of breast reduction operation. Normal culture conditions of medium (DMEM) containing antibiotics, 10% foetal calf serum, and incubation at 37° C. with 95% humidity were used. The effects of the test chemicals were determined in the following conditions: […]

[4] = system: human adult skin fibroblasts; assay: Short-term growth of human skin fibroblasts (cell counts, Giemsa); type: cell-based
Procedure: (§1) All experiments were performed on early and mid passage cultures (about 20 to 40% lifespan completed) of normal human adult skin fibroblast line; designated ASF-2 & Senetek cell line (about 10-90% lifespan completed); designated as SF20. In order to check the effects of test compounds on senescent cells, late passage cells with more than 95% lifespan completed were used. ASF-2 and SF20 cell lines were established from a mammary skin biopsy obtained from a young, non-smoking and healthy […] at the time of breast reduction operation. Normal culture conditions of medium (DMEM) containing antibiotics, 10% foetal calf serum, and incubation at 37° C. with 95% humidity were used. The effects of the test chemicals were determined in the following conditions:
Short-term growth experiments were performed using 24-well tissue culture plates (growth area 1.9 cm^2). Freshly prepared cell suspensions from mass cultures of ASF-2 cells maintained in our labs were used. About 10,000 cells were seeded into 6 sets of 24-well plates. The cells were allowed to attach and stabilize for 24 hr in normal culture medium to achieve various final concentrations (range 40 to 500 μM). Culture medium was changed with the addition of test chemicals twice a week. The numbers of cells were counted after different days of treatment in 2 wells from each concentration of the test chemical, by following the normal method of cell trypsinization and counting using a Coultercounter. The third well in each category was fixed by cold methanol and stained with Giemsa stain for permanent record and for photography. The experiment was carried on for until the cultures became fully confluent and no further growth was possible.

human skin fibroblasts [5] = assay: Cell survival, MTT assay; type: cell-based; conditions: 3 days
Procedure: Cell survival after exposure to various doses was measured with the 3-(4,5 dimethylthiazol-2-yl)-2,5-diphenyltetrazolium bromide (MTT) assay. About 5,000 cells were seeded per well in a 96-well plate 24 h before the experiment. Cells were then treated with various doses of the compound to be tested. The wells were washed in Hank's and new medium was added. After three days, MTT (Sigma, M2128) was added at 0.5 mg/ml in medium. After 4 h, MTT was removed and isopropanol and HCl were added to dissolve the MTT crystals for 12-16 h. The absorbance at 595 nm was measured.

[6] = system: lysosomes of fibroblast cells; assay: Lysosomal activity, neutral red uptake; type: cell-based, human
Procedure: Neutral Red is preferentially taken up into the lysosomes of the cell. Fibroblast cells are maintained in culture and exposed to test compounds over a range of concentrations. The cultures are visually examined after 72 hours, and the number of viable cells and/or the total cell protein content determined, after 72 hours exposure, by the Neutral Red Uptake method. Advantage of Neutral Red assay is that it detects only viable cells. Any chemical having a localized effect upon the lysosomes will, therefore, result in an artificially low (or possibly high) reflection of cell viability and cell number. This factor does, however, make the system useful to detect those compounds which selectively affect the lysosomes, especially when it is used in conjunction with other tests capable of determining cell number.
The NR assay has been applied to evaluation and ranking the cytotoxicity of a spectrum of compounds. Individual wells of a 96-well tissue culture microtiter plate were inoculated with 0.2 ml of the appropriate media containing cells (usually 3×10^3 cells). After 1 to 2 days of incubation, the media were removed and replaced with unamended (control) medium or with medium amended with varied concentrations of the compound to be tested. After 3 days of exposure to the compound, media were removed and replaced with media containing 0.001% NR. The assay plate was then returned to the incubator for another 3 h to allow for uptake of the supravital dye into the lysosomes of viable cells. Thereafter, the media were removed and the cells were rapidly washed with 0.5% formaldehyde-1% CaCl2 followed by 0.2 ml of a solution of 1% acetic acid-50% ethanol to extract the dye from the cells. After 10 min at room temperature and a brief but rapid agitation on a microtiter plate shaker, the plates were transferred to a microplate spectrophotometer equipped with a 540-nm filter to measure the absorbance of the extracted dye.
The toxicities of the various compounds were compared with those of the control cultures by computing the data obtained.

proteasome = assay: Proteasomal chymotrypsin-like activity in cell extracts of treated cells; type: cell-based, human; conditions: 40, 80 and 200 μM
Procedure: Chymotrypsin-like activity in cell extracts prepared from treated and untreated cells was determined by in vitro degradation of oligopeptides by the proteasome.

[7] = system: senescent human skin fibroblasts; assay: Actin staining of senescent cells (FITC-Phalloidin); type: cell-based; conditions: after 3 days; meta 40 μM
Text: Actin staining: The pattern of cytoskeletal actin staining was studied by staining the cells with florescent ligand FITC-labelled Phalloidin, using a fluorescence microscope

[8] = system: senescent human skin fibroblasts; assay: Morphology of senescent cells; type: cell-based
Procedure: as §1
Senescent human skin fibroblasts were treated with various doses of para-topolin to see if this treatment could reverse age-related alterations in their morphology. […] The cells progressively became heterogeneous with large and flattened appearance.

[9] = system: senescent human skin fibroblasts; assay: Numbers of surviving senescent cells (Coulter counter); type: cell-based
Procedure: Equal numbers of senescent cells were seeded in separate flasks and were treated with different concentrations of para-topolin. Cell numbers were determined by using a Coulter counter after trpsinization and resuspension of cells after 7 and 14 days of treatment.
Equal numbers of senescent cells were seeded in separate flasks and were treated with different concentrations of ortho-topolin. Cell numbers were determined by using a Coulter counter after trypsinisation and resuspension of cells, after 7 and 14 days of treatment.

human skin fibroblasts [10] = assay: beta-galactosidase staining of treated skin fibroblasts; type: cell-based; conditions: short-term growth treatment
human skin fibroblasts [11] = assay: Series of experiments on short-term effects on human skin fibroblasts, conclusion; type: cell-based; conditions: para at a dose of 40 μM
Procedure: as §1
The experiments were performed to determine the effects of short-term treatment of ortho-topolin, meta-topolin, and para-topolin on cell attachment, survival, growth, apoptosis, actin cytoskeletal pattern, lysosomal activity, proteasomal activity and morphology of human skin fibroblasts in culture.

[12] = Ex vitro, four weeks of acclimatising

Compound: c1ccc(CNc2ncnc3nc[nH]c23)cc1 [BAP, 6-benzylaminopurine, reference compound]
- IC50 (HOS): > 167 µM
- shoot multiplication and rooting, in words ([1]; 10 μM): high shoot multiplication rate, but the shoots rooted badly
- Root number per plant [1, 12]: 0.6
- Total root length per plant [1, 12]: 1.1 cm
- Flower number per explant ([1]; In vitro, 10 μM, 8 weeks): 0.00
- Number of new shoots per explant ([1]; In vitro, 10 μM, 8 weeks): 3.8
- Root number per explant ([1]; In vitro, 10 μM, 8 weeks): 0.0
- Total root length per explant ([1]; In vitro, 10 μM, 8 weeks): 0.0 cm
- relative number of dead plants in relation to culture time [2]: looks like a sigmoid curve

Compound: Oc1ccc(CNc2ncnc3nc[nH]c23)cc1 [para-topolin, 6-(4-hydroxybenzylamino)purine]
- Percent of cells attached, effect in words (human skin fibroblasts [3]; 6 hours, para 40 μM to 1 mM, ortho 40 to 400 μM, meta 40 to 200 μM): not affected to any significant extent
- Overall cell attachment improved (summary) (human skin fibroblasts [3]; para at 40, 80, 100, 160, 250 and 500 μM): 10-40%
- Cell growth (summary) ([4]; 40 μM): not affected
- Cell growth lower ([4]; 40 μM): 10%
- reduction of cell growth ([4]; 80 μM): over 40%
- appearance of dermal cells, microscopic examination (summary) ([4]; 40 and 80 μM): Healthy appearances of the cells were maintained
- Cell growth (summary) ([4]; 80, 200 and 500 μM): reduced
- appearance of dermal cells, microscopic examination (summary) ([4]; 200 and 500 μM): toxic effects with enlargement in cell sizes
- appearance of cells ([4]; 200 and 500 μM, eleven days): large in appearance, irregularly arranged and few in numbers
- dose over which cytotoxicity of cells was seen ([4]; Giemsa pictures after eleven days): > 80 µM
- Cellular growth at higher concentrations ([4]; para 200 to 500 μM after 11 days, ortho 200 and 400 μM after 7 days, meta 400 μM): almost a total inhibition
- reduction in cell survival (human skin fibroblasts [5]; 200-500 μM): 15-25%
- dose until which not cytotoxic / no toxic effect on survival (MTT) (human skin fibroblasts [5]; range 0.01-500 μM): 100 µM
- neutral red staining pattern of cells ([6]; 40 μM-500 μM): autophagy
- reduction in the macro-molecular turn over rate ([6]; 80 & 200 μM): 10-15%
- proteasomal activity (chymotrypsin-like), removal of oxidized and abnormal proteins (proteasome): slight improvement; also recorded: observed in a dose dependent manner
- actin staining pattern in senescent cells [7]: no obvious differences
- appearance of senescent cells on longer treatment ([8]; 14 days, ortho and meta 80 μM and above): began to shrink and die
- appearance of senescent cells ([8]; after 7 days of treatment (para: 7 days and 14 days; meta: low concentrations)): subtle differences
- growth of senescent cells ([9]; 200 μM, 7 to 14 days): no further growth of the cells was observed
- numbers of surviving senescent cells ([9]; 7 to 14 days of treatment): tolerant to para-topolin until 80 μM
- number of prematurely senescent cells, beta-galactosidase staining (human skin fibroblasts [10]): did not show any increase
- conclusion on short-term effects on human skin fibroblasts (human skin fibroblasts [11]): beneficial anti-aging effects
